Measured values from patent US20230277553A1, “THERAPEUTIC COMPOSITION OF CURE-PRO COMPOUNDS FOR TARGETED DEGRADATION OF BET DOMAIN PROTEINS, AND METHODS OF MAKING AND USAGE” (CORNELL UNIVERSITY, priority 2020, published 2023).
“Also recorded” adds a separate entry of the source.

Experiments:
Type in all cases: cell-based
Molm-13 cells = experiment: CellTiter-Glo cell viability, Molm-13 cells; settings: Molm-13, 24 and 72 h
Procedure: CellTiter-Glo® 2.0 Cell Viability Assay (Promega) was carried out following the manufacturer's recommendations. Cells were seeded at a density of 1000 cells/well in a white 96 well plates (Corning, #3917) in a total volume of 100 μl with respective monomers, combinations of BRD ligands together with E3 ligase ligands or vehicle control treatment. After a 72 h incubation, 100 ul of the CellTiter-Glo® substrate was added per well and luminescence was read on a Spectramax M5 (Molecular Devices). Dose-response curves were generated using Graphpad Prism software.
Molm-13 cells (1×10^4) were treated for 24 (FIG. 77A) or 72 (FIG. 77B) hours were treated in white 96 well plates with the compounds (10 nM-10 μM solubilized in DMSO). After indicated times cell viability was assessed using the CellTiter-Glo® Luminescent Cell Viability Assay (Promega) and the signal detected on a SpectraMax M5 (Molecular Devices).

caspase 3/7 [1] = experiment: Caspase-Glo 3/7 assay, Namalwa cells
Procedure: (§1) Caspase-glo® assay (Promega) was conducted following the manufacturer's recommendations. Cells were seeded at a density of 5000 cells/well in a white 96 well plates (Corning, #3917) in a total volume of 100 μl with respective monomers, combinations of BRD ligands together with E3 ligase ligands or vehicle control treatment. After a 24 h incubation, 100 μl of the […] substrate was added per well and luminescence was read on a Spectramax M5 (Molecular Devices).
Namalwa cells (5×104) were treated for 24 hours with the compounds solubilized in DMSO. FIG. 57 is a bar graph depiction of fold increase of apoptosis assessed via caspase 3/7 activity using the Caspase-glo assay (Promega) described above.
(§2) Molm-13 (FIG. 76A) or Namalwa (FIG. 76B) cells (5×10^4) were treated for 24 hours with the compounds solubilized in DMSO in white 96 well plates (10 nM-10 μM solubilized in DMSO). FIG. 76 is a bar graph depiction of fold increase of apoptosis assessed via caspase 3/7 activity using the Caspase-glo assay (Promega) described above.

BRD4 [2] = molecular target: T1, BRD4 (Homo sapiens, UniProt O60885); experiment: CURE-PRO-mediated BRD4 degradation with VHL ligands, WES (ProteinSimple), MCF7 cells; design: endogenous in cells
Procedure: (§3) All cell lines were purchased from ATCC or DSMZ and grown at 37° C. with 5% CO2. Human HeLa cells were cultured in complete growth medium (Dulbecco's modified Eagle's medium (DMEM) supplemented with 10% FBS); MCF7 cells were cultured in complete growth medium (Dulbecco's modified Eagle's medium (DMEM) supplemented with 10% FBS and 0.01 mg/ml human recombinant insulin (Sigma Aldrich); Namalwa and MOLM-13 cells were cultured in complete growth medium (RPMI 1640 medium supplemented with 10% FBS); MV-4-11 were cultured in complete growth medium (Iscove's Modified Dulbecco's medium, supplemented with 10% FBS); HCT116 cells were cultured in complete growth medium (McCoy's 5a Medium supplemented with 10% FBS). For cellular degradation of BRD4 studies, cells were seeded in a 12-well plate at 70-80% confluency, allowed to attach overnight, and incubated with the indicated compounds for the indicated time. When indicated, a 15-minute pretreatment with 10 μM pomalidomide, 10 μM VHL298, 10 μM Nutlin3a, 1 μM MG-132 or 1 μM Carfilzomib was performed before the addition of CURE-PROs. For washout studies, after CURE-PRO treatment, media was aspirated and incubated with complete medium for the indicated time before lysis.
WES Simple analysis was performed on WES system (ProteinSimple-Biotechne) according to the manufacturer's instructions. Total protein concentrations of cell lysates were determined by the Pierce BCA kit (Thermo Fisher). 3 μL of 0.3 μg/μL of the protein lysate was loaded onto a 12- to 230-kDa WES assay plate (ProteinSimple) where 300 nL sample was withdrawn through a capillary, subjected to electrophoretic separation of proteins by size, and followed by the simultaneous, HRP-based detection of proteins using the Anti-Rabbit Detection Module (Proteinsimple: #DM-001). The electropherograms were checked then the automatic peak detection was manually corrected if it was required.
MCF7 cells (3×10^6) were treated for 4-24 hours continually (FIG. 72), or treated for 4h, washed and incubated for a further 4-24 h with the compounds solubilized in DMSO. Compounds were added at 10 μM each. Cells were washed, lysed, and clarified by centrifugation. The total protein concentration was quantified by the BCA method (ThermoFisher Sciences). Standardized protein samples were electrophoresed and imaged as described in the WES Proteinsimple section above. FIG. 69 depicts the CURE-PRO-mediated BRD4 degradation for the BRD-E50 monomer, and VHL ligand, 8305.
MCF7 cells (3×10^6) were treated for 24 hours with the compounds solubilized in DMSO. CURE-PRO monomers were added at 10 μM each and the proteasomal inhibitors at 1 μM. Standardized protein samples were electrophoresed and imaged as described in the WES Proteinsimple section above. FIGS. 73 and 75 depicts the dependence of the proteasome for CURE-PRO-mediated BRD4 degradation.
MCF7 cells (3×10^6) were treated for 24 hours with the compounds solubilized in DMSO. CURE-PRO monomers were added at 10 μM. FIG. 74 depicts the CURE-PRO-mediated BRD4 degradation for the BRD-E50 monomer, and VHL ligand, 8305 combined in a 1:1 ratio after 24 h.

BRD4 [3] = molecular target: T1, BRD4; experiment: Summary of BRD4 degradation by CURE-PRO pairs, estimated from Western Blot or WES (Proteinsimple); design: endogenous in cells; settings: Table 3; aromatic 1,2-diol-containing VHL ligand, second drawing (8305)
Text: A black check mark indicates efficacy of 30% to 70% or higher protein degradation.

BRD4 [4] = molecular target: T1, BRD4; experiment: CURE-PRO-mediated BRD4 degradation with VHL ligands, Western blot, MCF7 cells; design: endogenous in cells; settings: MCF7, 24 h
Procedure: as §3
HeLa, MCF7, or HCT116 cells (2.5-3×10^6) were treated for 24 hours with the indicated compounds solubilized in DMSO. The cells were washed in ice-cold PBS and were then lysed in RIPA lysis buffer (150 mM NaCl, 5 mM EDTA, 1% NP-40, 0.5% sodium deoxycholate, 0.1% SDS, 50 mM Tris, pH 8.0.) with Roche protease inhibitor complete cocktail and phosphatase inhibitors (10 mM sodium fluoride, 10 mM sodium pyrophosphate, 1 mM sodium orthovanadate and 20 mM β-glycerophosphate). The total protein concentrations were determined by Bradford Protein Assay and 10-20 μg of protein was loaded onto 4-15% Tris-Glycine gradient gels (Biorad). After standard gel electrophoresis, the separated proteins were transferred to PVDF membrane by wet transfer. The immunoblots were then blocked for 1 hour in 5% skim milk in TBST or 5% BSA in TBST, according to manufacturer's instructions, before an overnight incubation at 4° C. with indicated antibodies and membranes. Membranes were then incubated with the appropriate horseradish peroxidase-conjugated secondary antibodies (1:5,000 dilution) for 1 h at room temperature and the bands were visualized using the Clarity Max Western ECL Substrate (Biorad) and the ChemiDoc Imaging System (Biorad). Signal was detected with ECL Western Blotting Substrate (Pierce) and X-ray film processed with a Konica SRX-101 X-ray film processor or captured by Bio-Rad's Chemidoc Imaging system.
MCF7 cells (3×10^6) were treated for 24 h with the compounds solubilized in DMSO. Compounds were added at 100 nM-10 μM. […]

caspase 3/7 [5] = experiment: Caspase-Glo 3/7 assay, Molm-13 cells
Procedure: as §1, §2

## CCNC(=O)C[C@@H]1N=C(c2ccc(Cl)cc2)c2cc(B(O)O)ccc2-n2c(C)nnc21 [BRD-E50, ((4S)-6-(4-chlorophenyl)-4-(2-(ethylamino)-2-oxoethyl)-1-methyl-4H-benzo[f][1,2,4]triazolo[4,3-a][1,4]diazepin-8-yl)boronic acid]
Molm-13 cells
  Cell viability, co-treatment with VHL298: decreases levels of cell viability to similar levels of BRD-E50 treatment alone
Molm-13 cells; 1:1 with 8305, 10 nM-10 μM
  Loss of cell viability, co-dosed with VHL ligand 8305: greater loss of cell viability; also recorded: marked loss in cell viability
Caspase 3/7 [1]
  Caspase activity, co-treatment with VHL298: does not increase caspase activity
Caspase 3/7 [1]; 24 hours, 1:1 with 8305, 10 nM-10 μM
  Caspase 3/7 activation, co-dosed with VHL ligand 8305: marked caspase activation; also recorded: demonstrates activation of caspase 3/7
BRD4 [2]; MCF7, 10 μM
  BRD4 degradation, monomer alone (WES): no degradation of BRD4
BRD4 [2]; MCF7, 10 μM each
  BRD4 degradation, with VHL ligand 8304 (WES): No degradation is noted
BRD4 [2]; MCF7, 10 μM each, 1:1 with 8305, 4-24 h, with washout where stated
  BRD4 degradation, with VHL ligand 8305 (WES): directs degradation of BRD4 as early as 4 h, with sustained degradation 24 h after wash out; also recorded: marked BRD4 degradation after 4h with sustained degradation for up to 8h after drugs are washed out
BRD4 [2]; MCF7, 24 h, 10 μM
  BRD4 degradation with 8305 after VHL298 preincubation: No degradation is noted
BRD4 [3]
  Degradation of BRD4 in combination with VHL ligand [drawing 397]: ✓ (A black check mark indicates efficacy of 30% to 70% or higher protein degradation)
BRD4 [4]; 1:1 with 8304, 1-10 μM
  BRD4 degradation, with VHL ligand 8304 (Western blot): but not when VHL ligand 8304 is co-incubated; also recorded: no degradation is noted
BRD4 [4]; 1:1 with 8305, 100 nM-10 μM
  BRD4 degradation, with VHL ligand 8305 (Western blot): there is degradation of BRD4; also recorded: marked BRD4 degradation
Caspase 3/7 [5]; MOLM13
  Caspase activity, co-treatment with VHL298: does not increase caspase activity
Caspase 3/7 [5]; Molm-13, 24 hours, 1:1 with 8305, 10 nM-10 μM
  Caspase 3/7 activation, co-dosed with VHL ligand 8305: marked caspase activation; also recorded: demonstrates activation of caspase 3/7
